Test system: Csn2
Test: Contralateral intraductal injection: Csn2 expression in MGs by RT-qPCR
Format: in vivo, mouse
Procedure: Nulliparous analysis was performed using adult (10-12-week-old) female mice. For timed pregnancies and lactation analysis, CD-1 pregnant adult females were obtained from Charles Rivers. Embryos were examined at the time of mammary gland harvesting to confirm pregnancy state. […] Plugged mice were considered to be PD0.5 on the day of the observed plug. All females used in this study were age matched.
Mice were anesthetized with isoflurane (VetOne, 501017) Prior to intraductal injections, hair was removed from around the nipples using Nair hair remover. Injections into the duct of the nipple were performed with 33 G needles (Hamilton, 7803-05) and a volume of 40 μl per gland. Right inguinal, abdominal and thoracic glands were injected with doxorubicin (1.5 μg per gland, Cayman Chemical, 15007), nucleosides (40 μl per gland, Millipore-Sigma, ES-008-D) or Mk-1775 (50 μg per gland, Cayman Chemical, 21266), and left glands were injected with PBS or DMSO (Thermo Scientific, BP231) diluted in PBS.
For RNA isolation from FACS purified populations, mammary gland cell suspensions were blocked using Mouse BD Fc Block™ (BD Biosciences) for 10 min. Cells were subsequently resuspended on 1×PBS at a density of 10^7 cells/ml and stained with the following antibodies for 30 min on ice: anti-CD24 PE (Stem Cell Technologies, 60099PE.1), anti-CD29 PE-Cy7 (BioLegend, 102222), anti-CD45-APC (BioLegend,105826), Ter119-APC (BD Biosciences, 561033), CD31-ACP (BD Biosciences, 551262). Propidium iodide at a final concentration of 0.5 μg/ml was used for the discrimination of dead cells. Stromal, basal and luminal mammary populations were sorted using a BD FACS Aria II Cell Sorter. […] Total RNA quality was analyzed by agarose gel electrophoresis and quantified using an ND-1000 spectrophotometer (NanoDrop). cDNA was prepared from 500-1000 ng of total RNA using iScript cDNA synthesis kit (Bio-Rad, 1708841). Quantitative RT-qPCR was performed in triplicates using SsoAdvanced Universal SYBR Green Supermix, (Bio-Rad, 1725272). […]

Compound	milk production as Csn2 expression, RT-qPCR (doxorubicin IDI at PD12.5 vs contralateral DMSO, PD17.5 MGs)	Csn2 expression, RT-qPCR (Mk-1775 IDI at PD16.5 vs contralateral DMSO, LD2 or LD5 MGs)
COc1cccc2c1C(=O)c1c(O)c3c(c(O)c1C2=O)C[C@@](O)(C(=O)CO)C[C@@H]3O[C@H]1C[C@H](N)[C@H](O)[C@H](C)O1 [doxorubicin]	increase	–
C=CCn1c(=O)c2cnc(Nc3ccc(N4CCN(C)CC4)cc3)nc2n1-c1cccc(C(C)(C)O)n1 [Mk-1775]	–	decrease
